{
  "source": "patent US8492614B2",
  "about": "“Plant biochemical systems and uses thereof” (The Board of Trustees of the University of Illinois, priority 2007, dated 2013)",
  "key": {"[1]": {"experiment": "Stability of absorbance spectra of cell free extracts with or without phenylalanine", "type": "physicochemical, Arabidopsis", "settings": "for stability of the extract solution (absorbance spectra, pigments) over time: cell free extracts in buffer, 24 h, room temperature or +4° C., lab lighting", "protocol": "Cell free extracts were left at room temperature for 24 h after a 10^5 μmol m^−2 treatment of UV (366 nm) in lab lighting (which is fluorescent)."}, "[2]": {"tested_on": "glabrous soybean seedlings", "experiment": "UV sensitivity of glabrous versus dense-hair soybean isolines", "type": "in vivo", "settings": "few-hair (glabrous) variety, small amounts of UV", "method": "Varieties that show sensitivity to UV are retained for more detailed testing of responses to UV and exogenous regulators. […] As isoline of hard soy with dense hairs was tested vs. hard soy with few (glafrous) hairs. […] Isogenic lines of Harasoy “dense” (many hairs per area) and “glabrous” (few or no hairs per area) were used to see if hairs themselves directly assisted in protection from UV-B radiation. Seedlings were grown and treated in the same manner as that shown in FIG. 18, then the integrity of the internal structures assessed by TEM as shown in FIG. 18."}, "[3]": {"tested_on": "etiolated soybean seedlings", "experiment": "Soybean seedlings irradiated with low fluence UV, grown with or without phenylalanine in the growth media", "type": "in vivo, soybean (Glycine max L.)", "settings": "for protection from the effects of high energy UV (lack of seed development, seed death): 1 mM phenylalanine in growth media, low fluence 300, 305, 311 or 317 nm on day 3 after planting", "from_the_text": "Three varieties, Williams, Forrest, and Williams 82, serve as the progenitor germplasms used in many US soybean breeding programs. These germplasms were used in the experiments described in the Examples, and representative data is shown. In general soybean experiments are done using etiolated seedlings irradiated 3 days after planting or 7 days after planting, in contrast to the regime (6 days dark growth) used for Arabidopsis experiments. For the soybean experiments we have used a high intensity light source filtered through narrow band pass for a low fluence radiation dose of (10^4 μmol m^−2), with (10 nm half band width) filters of peak pass-through at 300, 305, 311, 317, 325, 332 and 368 nm. Soybean primary leaves are sensitive to UV, with the greatest damage occurring in response to irradiation with the greatest energy (smallest wavelength). Three day old etiolated wild type Williams, Forest and Williams 82 soybean seedlings of were individually irradiated with a single low fluence pulse of 300, 305, 311, 317, 325, 332, 368 nm or no light (as a control). After irradiation seedlings were maintained in a summer day-night cycle (14 hr white light: 10 hr dark) to allow for photoreactivation and other forms of light mediated repair until day 8. Irradiation with 300, 305 or 311 nm light results in a “severe” damage with a greater then 70% mortality rate by day 8 (FIGS. 9,10). Irradiation with 317 or 325 nm results in a ‘moderate’ response, with a mortality of approximately 20%. […] Seedlings irradiated with 300, 317 or 368 nm light, or no UV light (as a control) were assessed 3, 7, 14, 21 and 28 days post planting. […] The very young seedlings were able to use the phenylalanine in the growth media to supplement the limiting amounts available in the seed to produce a larger quantity of UV screening pigments, and perhaps other compounds important to UV protection, thereby protecting themselves against the UV itself and perhaps enacting enhanced repair functions after the UV irradiation. […]"}, "soybean": {"tested_on": "soybean", "experiment": "Long-term growth and seed yield of UV-treated soybean supplemented with Phe", "type": "in vivo, soybean (Glycine max L.)", "settings": "Phe supplement before UV (300 nm) on day 3, grown to seed set", "protocol": "Referring to FIG. 22, it was shown that treating soybean with Phe reverses the negative effects of UV-radiation. Seedlings were grown identically to that described for FIGS. 13 and 14, where soybean were supplemented with Phe (+Phe) or not (−Phe). Soybean were grown to seed set in greenhouse conditions where growth characteristics and evaluation of pods and seeds occurred during and after ripening."}, "[4]": {"tested_on": "etiolated Arabidopsis gcr1, gpa1 or pd1 mutants", "experiment": "UV sensitivity of etiolated Arabidopsis mutants with phenylalanine added to the growth media", "type": "in vivo"}, "[5]": {"settings": "pH 7.4"}, "[6]": {"molecular_target": "T1, prephenate dehydratase (PD1) (Arabidopsis thaliana, UniProt Q9ZUY3)", "T1 construct": "from tissue; host or cells: aerial portions of etiolated (dark-grown) wild-type Col Arabidopsis seedlings; crude cell-free / cytosolic extract", "T1 sequence (Q9ZUY3 25-424)": "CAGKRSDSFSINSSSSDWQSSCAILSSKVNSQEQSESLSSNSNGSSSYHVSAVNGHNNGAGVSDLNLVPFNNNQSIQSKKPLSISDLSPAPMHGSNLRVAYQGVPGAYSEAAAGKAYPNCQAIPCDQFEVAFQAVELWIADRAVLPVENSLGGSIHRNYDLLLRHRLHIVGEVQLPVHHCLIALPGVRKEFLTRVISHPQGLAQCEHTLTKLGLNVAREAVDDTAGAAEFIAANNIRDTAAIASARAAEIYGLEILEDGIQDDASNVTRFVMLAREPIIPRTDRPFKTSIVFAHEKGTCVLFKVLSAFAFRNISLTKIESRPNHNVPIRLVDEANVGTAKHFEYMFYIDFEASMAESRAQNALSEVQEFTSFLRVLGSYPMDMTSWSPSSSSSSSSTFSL", "experiment": "Prephenate dehydratase activity in Arabidopsis cell free extracts", "type": "biochemical", "settings": "pre-incubation in various concentrations", "protocol": "143:1590-1600). […] Absorbance and stability characteristics are tested at different pH concentrations between 6.8-8.0. Absorbance and stability characteristics are tested at different temperatures and durations of storage on the pigments and phenylalanine characteristics in solution for Arabidopsis and this is done for all crop plant types tested. The aerial portions of six-day-old dark grown Arabidopsis seedlings were harvested into potassium phosphate buffer (pH 7.5; 50 mM), DTT (1 mM), and plant protease cocktail (Sigma), and homogenized for 60 sec at a setting of #6 in a Polytron. Cell debris was removed by centrifugation. All steps were carried out at 4° C. All plants types would be harvested by this method between 6-8 days after planting in darkness. […] Production of phenylpyruvate was determined spectrophotometrically. […] See […] et al., Plant Physiol. 140:844-855."}},
  "note": "Entries after “also recorded” stand apart in the source; their conditions may differ. Read-outs that look alike come from different tables or passages of the source.",
  "data": [
    {"smiles": "N[C@@H](Cc1ccccc1)C(=O)O", "note": "[phenylalanine]", "values": [
      {"measurement": "stability of the extract solution (absorbance spectra, pigments) over time", "setting": "[1]", "result": "remain stable over time; also recorded: clear difference in stability in the solution when phenylalanine is added"},
      {"measurement": "stability of the extract solution (absorbance spectra, pigments) over time", "setting": "[1]; listed as Phenylalanine", "result": "remained stable"},
      {"measurement": "deviation from initial 24 h post absorbance spectra", "setting": "[1]; extracts with phenylalanine added, UV (366 nm) treated, stored at +4° C. for 4 days", "result": "less than 10%"},
      {"measurement": "correction of UV damage in the glabrous variety", "setting": "[2]", "result": "can correct these deficiencies"},
      {"measurement": "growth characteristics after UV irradiation", "setting": "[3]; 1.0 mM Phe in growth media, seven d post-irradiation", "result": "restores growth characteristics regardless of UV wavelength"},
      {"measurement": "protection from the effects of high energy UV (lack of seed development, seed death)", "setting": "[3]", "result": "able to ameliorate the most negative of the effects of high energy UV"},
      {"measurement": "protection from the effects of high energy UV (lack of seed development, seed death)", "setting": "[3]; listed as Phe", "result": "can overcome the most deleterious effects of high energy UV in soybean"},
      {"measurement": "long-term growth, seed set and seed yield after UV treatment", "setting": "soybean", "result": "can reverse the negative effect on yield of UV; also recorded: serves a protective role to the plant in permitting the plant to achieve adult stage and seed set"},
      {"measurement": "long-term growth, seed set and seed yield after UV treatment", "setting": "soybean; listed as Phe", "result": "indistinguishable from untreated seedlings; also recorded: reversal of the negative effects of UV-radiation"},
      {"measurement": "rescue of UV sensitivity of mutants", "setting": "[4]", "result": "can rescue gcr1, gpa1 or pd1 mutants"},
      {"measurement": "rescue of UV sensitivity of mutants", "setting": "[4]; listed as Phe", "result": "restores waxes, fatty acids, UV-absorbing materials and restores resistance to UV damage in pd1 mutants; also recorded: able to respond to UV like wild type"},
      {"measurement": "degradation in buffered solution", "setting": "[5]", "result": "appeared to not degrade even for days"},
      {"measurement": "effect of pre-incubation on the reaction producing phenylalanine", "setting": "[6]", "result": "inhibited"}
    ]}
  ]
}
